Consider one compound from article PMC8799717, “Pharmacological targeting PIKfyve and tubulin as an effective treatment strategy for double-hit lymphoma” (Cell Death Discovery, 2022).

Some targets named below: ACVR2B (Homo sapiens, UniProt Q13705); CDKL3 (Homo sapiens, UniProt Q8IVW4); CSNK2A2 (Homo sapiens, UniProt P19784); EGFR(T790M) (Homo sapiens, UniProt P00533, T790M); EPHA4 (Homo sapiens, UniProt P54764); EPHB6 (Homo sapiens, UniProt O15197); FGFR4 (Homo sapiens, UniProt P22455); GSK3B (Homo sapiens, UniProt P49841); KIT(D816H) (Homo sapiens, UniProt P10721, D816H); PAK6 (Homo sapiens, UniProt Q9NQU5); PIK3CA(C420R) (Homo sapiens, UniProt P42336, C420R); PIK3CA(E545K) (Homo sapiens, UniProt P42336, E545K); PIK3CA(I800L) (Homo sapiens, UniProt P42336, I800L); PIK3CA(M1043I) (Homo sapiens, UniProt P42336, M1043I); PKN2 (Homo sapiens, UniProt Q16513); SBK1 (Homo sapiens, UniProt Q52WX2); SLK (Homo sapiens, UniProt Q9H2G2); ULK3 (Homo sapiens, UniProt Q6PHR2).

What all share (assay): biochemical
Holding throughout (parameters): KINOMEscan active-site-directed competition binding panel, 468 kinases, percent of DMSO control at 1 uM
Common to all, as to conditions: KINOMEscan binding, percent of DMSO control; read-out: Ctrl%

The target of assay [1] is T1, ABL1(E255K)-phosphorylated (Homo sapiens, UniProt P00519, E255K).
T1 construct: phosphorylated

The target in assay [2] is T2, ABL1(Y253F)-phosphorylated (Homo sapiens, UniProt P00519, Y253F).
T2 construct: phosphorylated

Another assay has as its target T3, LOK (Homo sapiens, UniProt O94804).
T3 construct: gene STK10

A further assay deals with T4, MST1 (Homo sapiens, UniProt Q13043).
T4 construct: gene STK4

The next assay deals with T5, PCTK2 (Homo sapiens, UniProt Q00537).
T5 construct: gene CDK17

Another assay concerns the target T6, SNARK (Homo sapiens, UniProt Q9H093).
T6 construct: gene NUAK2

PIK3CA(I800L), sequence (P42336 whole entry I800L): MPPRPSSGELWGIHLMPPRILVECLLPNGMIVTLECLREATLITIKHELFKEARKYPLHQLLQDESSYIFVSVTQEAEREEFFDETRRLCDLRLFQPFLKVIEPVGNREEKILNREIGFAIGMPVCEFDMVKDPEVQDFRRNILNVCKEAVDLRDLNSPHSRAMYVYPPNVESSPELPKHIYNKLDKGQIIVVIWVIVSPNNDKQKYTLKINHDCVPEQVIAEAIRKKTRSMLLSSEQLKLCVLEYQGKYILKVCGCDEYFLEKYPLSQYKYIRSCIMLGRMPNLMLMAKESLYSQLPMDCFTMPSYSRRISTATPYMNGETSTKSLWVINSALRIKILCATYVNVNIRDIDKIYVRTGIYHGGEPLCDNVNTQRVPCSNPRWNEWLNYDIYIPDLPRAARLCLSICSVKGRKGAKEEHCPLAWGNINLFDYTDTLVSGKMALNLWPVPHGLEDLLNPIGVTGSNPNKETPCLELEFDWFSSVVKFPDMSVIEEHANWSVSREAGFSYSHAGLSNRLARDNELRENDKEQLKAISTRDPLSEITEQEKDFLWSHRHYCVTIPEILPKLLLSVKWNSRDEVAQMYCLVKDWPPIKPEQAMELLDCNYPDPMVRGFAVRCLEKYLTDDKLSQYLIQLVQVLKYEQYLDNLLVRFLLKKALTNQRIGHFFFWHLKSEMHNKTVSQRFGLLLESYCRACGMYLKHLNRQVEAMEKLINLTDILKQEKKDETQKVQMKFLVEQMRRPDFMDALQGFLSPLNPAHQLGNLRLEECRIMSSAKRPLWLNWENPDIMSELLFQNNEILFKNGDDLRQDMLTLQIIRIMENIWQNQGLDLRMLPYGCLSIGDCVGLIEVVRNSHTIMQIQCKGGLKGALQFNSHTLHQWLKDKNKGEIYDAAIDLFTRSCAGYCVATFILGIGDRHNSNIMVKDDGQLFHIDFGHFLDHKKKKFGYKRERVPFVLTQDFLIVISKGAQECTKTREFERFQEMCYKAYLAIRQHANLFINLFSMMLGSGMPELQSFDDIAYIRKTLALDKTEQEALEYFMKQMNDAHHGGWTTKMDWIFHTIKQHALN
T6 sequence (Q9H093 whole entry): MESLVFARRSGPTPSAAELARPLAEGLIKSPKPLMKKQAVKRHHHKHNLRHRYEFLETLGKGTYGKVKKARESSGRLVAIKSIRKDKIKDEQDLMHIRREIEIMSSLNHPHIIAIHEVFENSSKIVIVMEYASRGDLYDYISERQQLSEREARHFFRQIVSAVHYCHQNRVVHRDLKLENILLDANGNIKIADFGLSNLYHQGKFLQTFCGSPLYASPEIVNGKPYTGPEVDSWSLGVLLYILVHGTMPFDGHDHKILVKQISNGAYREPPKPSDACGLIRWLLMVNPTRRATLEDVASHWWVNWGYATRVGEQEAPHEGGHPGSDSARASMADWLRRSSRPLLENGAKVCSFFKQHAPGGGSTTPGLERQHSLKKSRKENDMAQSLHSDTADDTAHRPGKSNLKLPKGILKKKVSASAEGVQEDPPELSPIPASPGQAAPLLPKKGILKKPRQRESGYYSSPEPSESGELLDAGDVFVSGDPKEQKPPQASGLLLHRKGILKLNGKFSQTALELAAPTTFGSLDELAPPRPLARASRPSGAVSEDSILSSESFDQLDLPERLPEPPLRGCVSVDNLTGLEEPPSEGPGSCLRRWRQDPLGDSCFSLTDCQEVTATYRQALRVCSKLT
FGFR4, sequence (P22455 whole entry): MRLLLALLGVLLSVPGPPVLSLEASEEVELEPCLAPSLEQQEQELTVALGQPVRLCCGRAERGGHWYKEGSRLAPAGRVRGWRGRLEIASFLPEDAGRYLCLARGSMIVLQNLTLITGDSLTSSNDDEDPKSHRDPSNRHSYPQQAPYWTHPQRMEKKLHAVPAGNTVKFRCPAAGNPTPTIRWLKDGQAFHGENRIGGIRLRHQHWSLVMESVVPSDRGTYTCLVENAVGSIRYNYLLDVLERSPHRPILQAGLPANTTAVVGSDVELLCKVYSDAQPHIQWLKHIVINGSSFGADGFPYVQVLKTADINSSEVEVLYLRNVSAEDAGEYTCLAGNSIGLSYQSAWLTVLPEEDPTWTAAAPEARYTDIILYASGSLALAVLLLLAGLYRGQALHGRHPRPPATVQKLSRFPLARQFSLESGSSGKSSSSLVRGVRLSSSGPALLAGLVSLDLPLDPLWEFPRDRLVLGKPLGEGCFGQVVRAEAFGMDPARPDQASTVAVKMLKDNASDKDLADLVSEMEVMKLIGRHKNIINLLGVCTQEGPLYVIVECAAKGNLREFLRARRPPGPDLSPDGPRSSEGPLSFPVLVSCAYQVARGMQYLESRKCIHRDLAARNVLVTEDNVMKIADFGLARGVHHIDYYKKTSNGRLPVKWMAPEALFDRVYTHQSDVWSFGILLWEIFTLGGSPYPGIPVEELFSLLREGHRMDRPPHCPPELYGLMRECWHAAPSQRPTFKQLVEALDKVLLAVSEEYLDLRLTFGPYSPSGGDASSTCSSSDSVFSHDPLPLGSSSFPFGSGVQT
PIK3CA(C420R), sequence (P42336 whole entry C420R): as the sequence (P42336 whole entry I800L) above, with C420R, L800I counted along it
PIK3CA(E545K), sequence (P42336 whole entry E545K): as the sequence (P42336 whole entry I800L) above, with E545K, L800I counted along it
T3 sequence (O94804 whole entry): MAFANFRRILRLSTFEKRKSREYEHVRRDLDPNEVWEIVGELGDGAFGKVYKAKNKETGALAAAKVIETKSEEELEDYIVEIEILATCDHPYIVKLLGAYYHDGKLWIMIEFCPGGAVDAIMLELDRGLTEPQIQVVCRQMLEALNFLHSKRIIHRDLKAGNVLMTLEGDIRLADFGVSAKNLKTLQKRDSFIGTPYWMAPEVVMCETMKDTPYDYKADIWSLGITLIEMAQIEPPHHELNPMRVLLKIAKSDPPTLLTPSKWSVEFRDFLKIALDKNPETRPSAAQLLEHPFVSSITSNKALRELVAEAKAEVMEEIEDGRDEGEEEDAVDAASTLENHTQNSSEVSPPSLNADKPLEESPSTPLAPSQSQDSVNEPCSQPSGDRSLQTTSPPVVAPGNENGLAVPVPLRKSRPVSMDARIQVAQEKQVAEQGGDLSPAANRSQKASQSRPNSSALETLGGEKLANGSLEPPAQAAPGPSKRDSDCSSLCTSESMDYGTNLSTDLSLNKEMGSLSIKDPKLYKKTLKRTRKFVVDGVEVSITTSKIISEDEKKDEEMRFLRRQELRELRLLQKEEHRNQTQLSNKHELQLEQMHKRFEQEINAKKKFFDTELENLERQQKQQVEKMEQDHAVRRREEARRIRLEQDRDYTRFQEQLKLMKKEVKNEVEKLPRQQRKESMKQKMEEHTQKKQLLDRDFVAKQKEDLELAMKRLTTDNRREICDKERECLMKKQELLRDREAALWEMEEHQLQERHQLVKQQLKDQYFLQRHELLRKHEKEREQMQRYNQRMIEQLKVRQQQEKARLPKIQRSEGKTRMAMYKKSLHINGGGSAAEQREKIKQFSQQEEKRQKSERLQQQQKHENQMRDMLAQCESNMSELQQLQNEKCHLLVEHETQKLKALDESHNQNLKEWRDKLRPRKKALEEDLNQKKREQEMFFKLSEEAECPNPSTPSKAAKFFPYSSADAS
EPHA4, sequence (P54764 whole entry): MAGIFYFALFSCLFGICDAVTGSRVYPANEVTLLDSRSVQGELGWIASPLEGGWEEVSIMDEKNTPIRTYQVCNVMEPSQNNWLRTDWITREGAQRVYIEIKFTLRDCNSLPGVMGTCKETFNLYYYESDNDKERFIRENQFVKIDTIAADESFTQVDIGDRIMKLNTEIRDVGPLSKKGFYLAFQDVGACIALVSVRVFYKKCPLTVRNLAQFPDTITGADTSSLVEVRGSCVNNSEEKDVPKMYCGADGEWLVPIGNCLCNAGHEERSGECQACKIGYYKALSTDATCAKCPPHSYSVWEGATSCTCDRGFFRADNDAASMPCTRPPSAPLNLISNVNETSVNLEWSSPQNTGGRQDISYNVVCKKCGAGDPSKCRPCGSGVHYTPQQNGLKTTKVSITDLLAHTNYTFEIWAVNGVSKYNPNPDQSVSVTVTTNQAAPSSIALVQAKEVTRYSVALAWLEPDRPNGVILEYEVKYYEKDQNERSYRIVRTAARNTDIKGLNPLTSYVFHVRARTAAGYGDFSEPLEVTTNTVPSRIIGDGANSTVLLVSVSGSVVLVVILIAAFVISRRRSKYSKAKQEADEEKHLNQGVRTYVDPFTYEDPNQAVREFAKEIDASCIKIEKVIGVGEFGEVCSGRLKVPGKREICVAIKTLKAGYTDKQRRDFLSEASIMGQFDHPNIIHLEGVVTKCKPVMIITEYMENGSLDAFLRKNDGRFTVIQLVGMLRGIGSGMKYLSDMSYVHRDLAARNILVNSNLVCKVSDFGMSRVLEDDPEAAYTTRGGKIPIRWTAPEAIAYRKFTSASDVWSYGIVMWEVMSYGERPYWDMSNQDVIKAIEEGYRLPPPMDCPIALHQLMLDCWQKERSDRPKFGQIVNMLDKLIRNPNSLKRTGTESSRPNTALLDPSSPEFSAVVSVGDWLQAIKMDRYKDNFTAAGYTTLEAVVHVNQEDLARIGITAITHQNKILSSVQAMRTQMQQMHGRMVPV
ULK3, sequence (Q6PHR2 whole entry): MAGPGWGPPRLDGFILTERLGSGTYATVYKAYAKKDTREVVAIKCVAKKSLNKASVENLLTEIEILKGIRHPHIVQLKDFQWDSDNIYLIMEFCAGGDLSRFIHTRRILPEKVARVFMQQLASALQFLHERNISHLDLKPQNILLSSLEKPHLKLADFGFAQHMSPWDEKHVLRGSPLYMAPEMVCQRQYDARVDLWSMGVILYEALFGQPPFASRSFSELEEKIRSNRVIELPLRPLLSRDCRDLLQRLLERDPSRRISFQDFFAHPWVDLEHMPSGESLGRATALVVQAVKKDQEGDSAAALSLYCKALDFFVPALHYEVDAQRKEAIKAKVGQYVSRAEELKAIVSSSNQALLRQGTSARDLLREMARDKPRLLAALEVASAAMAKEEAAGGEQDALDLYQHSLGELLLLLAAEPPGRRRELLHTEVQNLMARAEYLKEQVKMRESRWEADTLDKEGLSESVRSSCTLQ
PIK3CA(M1043I), sequence (P42336 whole entry M1043I): as the sequence (P42336 whole entry I800L) above, with L800I, M1043I counted along it

As for `Cc1ccc(NC(=O)c2cccc(C(F)(F)F)c2)cc1Nc1cc(-c2cccnc2)nc2[nH]ccc12` [HZX-02-059], the remaining binding at 1 µM was 77% in [1]; 49% in assay [2]; 71% on ACVR2B; 84% at CDKL3; 100% at CSNK2A2; 94% at EGFR(T790M). Further, the remaining binding at 1 µM at EPHA4 turned out to be 8.3%; on EPHB6 it was 42%; at FGFR4 it was 91%; on GSK3B, 83%; on KIT(D816H), 100%; at LOK, 47%. Besides, the remaining binding at 1 µM at MST1 stood at 74%; on PAK6, 100%; at PCTK2, 100%; at PIK3CA(C420R) it was 100%; on PIK3CA(E545K), 63%; at PIK3CA(I800L) it was 81%. The remaining binding at 1 µM is 92% at PIK3CA(M1043I); 100% at PKN2; 88% at SBK1; 100% on SLK; 99% at SNARK; 91% on ULK3.
